The source of these data is patent US11485762B2, “Compositions and methods for inhibition of L-plastin activity in osteoclasts to reduce bone loss” (University of Maryland, Baltimore, priority 2017, dated 2022).

Test [1] deals with endogenous LPL. The experiment in a line: Phosphorylation of endogenous LPL in osteoclasts derived from RAW cells. Format: cell-based. The conditions noted are these: bone particles and TNF-α. The text has this:
(§1) C57/BL6 mice were used for osteoclast preparation as described previously (Chellaiah et al., 2000, J. Cell Biol., 148: 665.678; Chellaiah et al., 2007, J. Biol. Chem., 282: 10104-10116). Osteoclasts were generated in vitro using mouse bone marrow (BM) cells as described (Chellaiah et al., 2000, J. Cell Biol., 148: 665-678; Chellaiah et al., 2007, J. Biol. Chem., 282: 10104.10116). Osteoclasts differentiated from RAW 264.7 cells were also used to corroborate a few of the observations made with osteoclasts derived from mouse BM cells. Osteoclasts from RAW 264.7 cells were generated as described previously (Gupta et al., 2003, J Bone Miner Res 18: 669-685). Conditions were established that offer >90% population of mature multinucleated osteoclasts from both mouse bone marrow and RAW cells.
After flushing the marrow cells for osteoclast differentiation, long mouse bones (free of cells inside and muscles outside) were washed extensively with PBS and kept in ethanol until use. Long bones were air-dried in the hood and homogenized by a mini blender. Bone particles were sieved, and bone particles 60-80 μm in size were used for experiments. The multinucleated osteoclasts were seen from day four onward from mouse BM or RAW cells. At this stage, osteoclasts were added with sterile native bone particles (100 μg/ml medium) for 3-4 hours or 12-14 hours in the presence of TNF-α (20 ng/ml). […]

Test [2] concerns osteoclasts derived from RAW cells. The experiment in a line: Podosome organization and migration in osteoclasts derived from RAW cells. Format: cell-based. Conditions: compared with P5.
Text: as §1, with “RAW cells. […]” for “RAW cells.”
Cell migration (phagokinesis and transwell migration) assays were done as described previously (Chellaiah et al., 2000, J. Cell Biol., 148: 665-678). […] Migrated cells at the bottom of the wells were counted in 3-4 independent fields/transwell filter. […] In phagokinesis assay, cell motility was assessed by measuring the areas free of gold particles. By using a grided reticule (Boyce Scientific. Inc.) in the eyepiece of a Nikon microscope, areas free of gold particles were measured using a 10× objective. […]

The test system is the same in test [3]. Briefly: NSZs and sealing ring formation in osteoclasts derived from RAW cells. Format: cell-based.
Text: as §1
After cells were kept in the serum-free α-MEM medium for two hours, LPL peptides of interest were added to a final concentration of 100-150 nM to cells in serum-free media (Chellaiah et al, 2000, J. Biol. Chem., 275: 11993-12002). Osteoclasts transduced with peptides of interest and added with bone particles in the presence of TNF-α for 3-4 hours or 12-14 hours were used for lysate preparations. Cells plated on coverslips and treated with peptides were used for actin staining to detect podosomes. […]

The subject of test [4] is integrin αv. Briefly: Localization of integrin αv in NSZs (immunostaining with LPL and integrin αv antibody). Format: cell-based, mouse. Conditions: 3, 6 and 10 hours. As to the method:
After cells were kept in the serum-free α-MEM medium for two hours, LPL peptides of interest were added to a final concentration of 100-150 nM to cells in serum-free media (Chellaiah et al, 2000, J. Biol. Chem., 275: 11993-12002). Osteoclasts transduced with peptides of interest and added with bone particles in the presence of TNF-α for 3-4 hours or 12-14 hours were used for lysate preparations. Cells plated on coverslips and treated with peptides were used for actin staining to detect podosomes. After transduction for 30 min., osteoclasts were re-plated on dentine slices with respective LPL peptide and TNF-α for 3-6 hours or 12-14 hours. These cells were used for Actin staining with rhodamine-phalloidin or immunostaining analyses (Chellaiah et al., 2000, J. Biol. Chem., 275: 11993-12002; Chellaiah et al., 2000, J. Cell. Biol., 148: 665-678; Chellaiah et al., 2003, J Biol Chem 278: 29086-29097).
Osteoclasts were fixed with 3% paraformaldehyde for 20 minutes and permeabilized with 0.1% Triton X-100 in PBS for 5 minutes. Subsequently, osteoclasts were stained with a primary (HA or integrin αv) and secondary antibody as described (Chellaiah et al., 2003, J Biol Chem 278: 29086-29097). Actin staining was done with rhodamine-phalloidin as described (Chellaiah et al., 2000, J. Biol. Chem., 275: 11993-12002; Chellaiah et al., 2000, J. Cell Biol., 148: 665-678). […]

Entries after “also recorded” stand apart in the source; their conditions may differ.

Consider “MARGSVSDEE [Peptide P1, TAT-fused small molecular weight (10aa) amino-terminal LPL peptide, unsubstituted (S5S7)]”, for which the “phosphorylation of endogenous (cellular) LPL” value in test [1] is reported as “significant decrease; also recorded: reduced”. Also, in test [2], the migration of osteoclasts result is listed as “no effect” and the “pattern of podosome organization” value is “no effect”. In test [3], the “formation of NSZs” value is recorded as “significant decrease” and the “formation of sealing rings” value is given as “significant decrease”. Further, in test [4], the “localization of integrin αv in NSZs / colocalization with LPL” value is on record as “abrogated”.
